Read-outs that look alike come from different tables or passages of the source. Values belong to the molecule of their own block, whether it stands above or below them.
How the values were obtained:
[1] = Potentiometric titrations: stability constants and pM of Cu^2+ complexes; assay type: physicochemical; details: for b) thermodynamic stability: pCu: overview table, calculated pM
Experimental: Equipment and work conditions. The potentiometric setup has been described in Roger, M. et al. Inorg. […] Ligand solutions were prepared at about 2.0×10^−3 M, and the Cu^2+ and Zn^2+ solutions at ca. 0.05 M from analytical grade nitrate salts and standardized by complexometric titrations with H4edta (ethylenediaminetetraacetic acid). Sample solutions for titration contained approximately 0.04 mmol of ligand in a volume of 30 mL where the ionic strength was kept at 0.10 M using KNO3 as background electrolyte. Metal cations were added at 0.9 equiv. of the ligand amount in complexation titrations. Batch titrations were prepared in a similar way but with each titration point corresponding to 1/10 of the amount of a conventional titration sample.
(§1) Measurements. All measurements were carried out at 25.0±0.1° C. under inert atmosphere. The electromotive force of the sample solutions was measured after calibration of the electrodes by titration of a standard HNO3 solution at 2.0×10^−3 M in the work conditions. The [H^+] of the solutions was determined by measurement of the electromotive force of the cell, E=E^o′+Q log [H^+]+Ej. The term pH is defined as −log [H^+]. E^o′ and Q were determined from the acid region of the calibration curves. Deviations from the Nernst law at very low pH (pH<2.5) were corrected with the VLpH software (Calibration software from the maker of Hyperquad available for free at http://www.hyperquad.co.uk/), which performs a [H^+] correction based on a very low pH calibration procedure.
(§2) Calculations. The potentiometric data were refined with the Hyperquad software, and speciation diagrams were plotted using the HySS software. The overall equilibrium constants βi^H and βMmHhL1 are defined by βMmHhL1=[MmHhLl]/[M]^m[H]^h[L]^l (βi^H=[HhLl]/[H]^h[L]^l and βML-1L=βML(OH)×Kw). Differences in log units between the values of protonated (or hydrolysed) and non-protonated constants provide the stepwise (log K) reaction constants (being KMmHhL1=[MmHhLl]/[MmHh-1Ll][H]). The errors quoted are the standard deviations calculated by the fitting program from all the experimental data for each system.
(§3) The stability constants of the complexes formed by Hcb-te1pa with Cu^2+ and Zn^2+ were determined by potentiometric titrations in aqueous solution at 25.0° C. in 0.10 M KNO3 ionic strength (Table 2).
During titrations, each experimental point included a supplementary equilibration time in order to yield fully stabilized measurements. […] For this reason, batch titrations were prepared in the range of pH=4-6 and were left to equilibrate until full stabilization, while conventional titrations were used for the remaining pH regions.
For a correct comparison of the thermodynamic stability of the complexes of Hcb-te1pa with the corresponding values of other ligands from the literature, the pM values that take into account the variable basicity properties of different ligands were also calculated (Table 3). […] The thermodynamic stability is not the only important criterion to determine the efficiency of metal complexation because, depending on the application, other factors such as kinetic inertness or in vivo stability can be more important.

[2] = Potentiometric titrations: stability constants and pM of Zn^2+ complexes; assay type: physicochemical; details: for c) inertness vs Zn: pZn: overview table, calculated pM
Experimental: Equipment and work conditions. The potentiometric setup has been described in Roger, M. et al. Inorg. Chem. 2013, 52, 5246-5259. The titrant was a KOH solution prepared at ca. 0.1 M from a commercial ampoule of analytical grade, and its accurate concentration was obtained by application of the Gran's method upon titration of a standard HNO3 solution (Rossotti, F. J. and Rossotti, H. J. J. Chem. Educ. 1965, 42, 375-378). Ligand solutions were prepared at about 2.0×10^−3 M, and the Cu^2+ and Zn^2+ solutions at ca. 0.05 M from analytical grade nitrate salts and standardized by complexometric titrations with H4edta (ethylenediaminetetraacetic acid). Sample solutions for titration contained approximately 0.04 mmol of ligand in a volume of 30 mL where the ionic strength was kept at 0.10 M using KNO3 as background electrolyte. Metal cations were added at 0.9 equiv. of the ligand amount in complexation titrations. Batch titrations were prepared in a similar way but with each titration point corresponding to 1/10 of the amount of a conventional titration sample. Batch titration points were incubated in tightly closed vials at 25° C. until potential measurements attained complete stability, which happened within a week.
as §1, with “procedure. The liquid-junction potential, Ej, was otherwise found to be negligible for pH >2.5 under the experimental conditions used. […] Each titration consisted of 80-100 equilibrium points in the range of pH 2.5-11.5 (or 1.5-11.5 for Cu^2+ complexations), and at least two replicate titrations were performed for each particular system.” for “procedure.”
as §2, §3
The equilibrium of formation of the copper(II) and especially the zinc(II) complexes is slow in the acidic pH range. In the case of Cu^2+, the complexation is almost complete from low pH but relatively slow up to pH=4. To overcome this double problem, conventional titrations were performed at pH values below 2 in order to observe a significant percentage of free metal ion (at least 18%) and thus allow for determination of the corresponding stability constant, while giving the solution enough time to reach equilibrium prior to the start of the titration. During titrations, each experimental point included a supplementary equilibration time in order to yield fully stabilized measurements. […]

[3] = cited from earlier work; for c) inertness vs Zn: log K[ZnL]: overview table, ligands of the prior art (** Delgado 1982, *** Chaves 1992)
[4] = cited from earlier work; for d) kinetic inertness: half-life (t1/2): copper chelates of prior-art ligands; for half-life (t1/2), acid-assisted dissociation of copper(II) complex: literature value
[5] = overview table, cited from earlier work; for a) metallation kinetics: time required for complete (>99%) Cu complexation (in words): ligands of the prior art
[6] = cited from earlier work; for b) thermodynamic stability: log K[CuL]: overview table, ligands of the prior art (* estimation by Anderson and Ferdani 2009)
[7] = overview table; copper chelates of prior-art ligands; cited from earlier work
[8] = 25.0° C., 0.10M KNO3; from Lima et al. 2012; cited from earlier work
[9] = pH = 7.4, 100% excess of ligand, [M^2+]tot = 1 × 10^−5 M
[10] = 25.0° C., I = 0.10M KNO3, from Lima et al. 2012

SMILES: O=C(O)CN1CCN2CCN(CC1)CCN(CC(=O)O)CC2 [cb-do2a]
half-life (t1/2), acid-assisted dissociation of copper(II) complex ([4]; 5M HCl, 30° C.): <0.033 h | d) kinetic inertness: half-life (t1/2) ([4]; HCl, 5M, 30° C.): <2 min | d) kinetic inertness: half-life (t1/2) ([4]; HCl, 5M, 90° C.): <3 min | a) metallation kinetics: time required for complete (>99%) Cu complexation (in words) [5]: too slow | e) stability upon reduction, Cu(II) -> Cu (I): reduction potential [7]: −0.72 V | e) stability upon reduction, Cu(II) -> Cu (I): reversibility [7]: irreversible

SMILES: O=C(O)CN1CCCN2CCN(CCCN(CC(=O)O)CC2)CC1 [cb-te2a]
half-life (t1/2), acid-assisted dissociation of copper(II) complex ([4]; 5M HCl, 90° C.): 154 h | d) kinetic inertness: half-life (t1/2) ([4]; HCl, 5M, 90° C.): 9240 min | a) metallation kinetics: time required for complete (>99%) Cu complexation (in words) [5]: too slow | b) thermodynamic stability: log K[CuL] [6]: 27.10* | e) stability upon reduction, Cu(II) -> Cu (I): reduction potential [7]: −0.88 V | e) stability upon reduction, Cu(II) -> Cu (I): reversibility [7]: quasi-reversible

Continued, in another order:

b) thermodynamic stability: pCu [1]: 15.19 | c) inertness vs Zn: pZn [2]: 15.01
SMILES: O=C(O)CN1CCN(CC(=O)O)CCN(CC(=O)O)CCN(CC(=O)O)CC1 [dota, 1,4,7,10-tetraazacyclododecane-1,4,7,10-tetraacetic acid]
c) inertness vs Zn: log K[ZnL] [3]: 21.01*** | d) kinetic inertness: half-life (t1/2) ([4]; HCl, 5M, 90° C.): <1 min | d) kinetic inertness: half-life (t1/2) ([4]; HClO4, 5M, 25° C.): about 5 min | a) metallation kinetics: time required for complete (>99%) Cu complexation (in words) [5]: fast | b) thermodynamic stability: log K[CuL] [6]: 22.21 | e) stability upon reduction, Cu(II) -> Cu (I): reduction potential [7]: −0.74 V | e) stability upon reduction, Cu(II) -> Cu (I): reversibility [7]: irreversible

b) thermodynamic stability: pCu [1]: 18.64 | Calculated pM, Cu^2+ [1, 9]: 18.64 | c) inertness vs Zn: pZn [2]: 12.00 | Calculated pM, Zn^2+ [2, 9]: 12.00
SMILES: O=C(O)c1cccc(CN2CCCNCCNCCCNCC2)n1 [Hte1pa]
log βi^H, L + 2 H^+ ⇌ H2L [8]: 21.66 log units | log βi^H, L + 3 H^+ ⇌ H3L [8]: 24.37 log units | log βi^H, L + 4 H^+ ⇌ H4L [8]: 26.07 log units | log βi^H, L + H^+ ⇌ HL [8]: 11.55 log units | log KMLHh, ZnL + H^+ ⇌ ZnHL [3, 10]: 2.52 log units | log KMLHh, ZnLOH + H^+ ⇌ ZnL [3, 10]: 11.02 log units | log KMLHh, Zn^2+ + L ⇌ ZnL [3, 10]: 18.86 log units | log βMLHh, Zn^2+ + H^+ + L ⇌ ZnHL [3, 10]: 21.38 log units | log βMLHh, Zn^2+ + L ⇌ ZnL [3, 10]: 18.86 log units | log βMLHh, Zn^2+ + L ⇌ ZnLOH + H^+ [3, 10]: 7.84 log units | c) inertness vs Zn: log K[ZnL] [3]: 18.86 | half-life (t1/2), acid-assisted dissociation of copper(II) complex ([4]; 1M HCl, 25° C.): 0.533 h | half-life (t1/2), acid-assisted dissociation of copper(II) complex ([4]; 5M HClO4, 25° C.): 2.4 h | d) kinetic inertness: half-life (t1/2) ([4]; HClO4, 5M, 25° C.): 144 min | a) metallation kinetics: time required for complete (>99%) Cu complexation ([5]; ligand of the prior art): 3 min | log KMLHh, CuL + H^+ ⇌ CuHL [6, 10]: 2.17 log units | log KMLHh, CuLOH + H^+ ⇌ CuL [6, 10]: 11.15 log units | log KMLHh, Cu^2+ + L ⇌ CuL [6, 10]: 25.5 log units | log βMLHh, Cu^2+ + H^+ + L ⇌ CuHL [6, 10]: 27.67 log units | log βMLHh, Cu^2+ + L ⇌ CuL [6, 10]: 25.5 log units | log βMLHh, Cu^2+ + L ⇌ CuLOH + H^+ [6, 10]: 14.35 log units | b) thermodynamic stability: log K[CuL] [6]: 25.50 | e) stability upon reduction, Cu(II) -> Cu (I): reduction potential [7]: −1.05 V | e) stability upon reduction, Cu(II) -> Cu (I): reversibility [7]: quasi-reversible

b) thermodynamic stability: pCu [1]: 15.19 | c) inertness vs Zn: pZn [2]: 10.08
SMILES: O=C(O)CN1CCCN(CC(=O)O)CCN(CC(=O)O)CCCN(CC(=O)O)CC1 [teta]
c) inertness vs Zn: log K[ZnL] [3]: 15.81** | d) kinetic inertness: half-life (t1/2) ([4]; HCl, 5M, 30° C.): 5040 min | d) kinetic inertness: half-life (t1/2) ([4]; HCl, 5M, 90° C.): 4.5 min | d) kinetic inertness: half-life (t1/2) ([4]; HClO4, 5M, 25° C.): about 8 min | a) metallation kinetics: time required for complete (>99%) Cu complexation (in words) [5]: fast | b) thermodynamic stability: log K[CuL] [6]: 21.60 | e) stability upon reduction, Cu(II) -> Cu (I): reduction potential [7]: −0.98 V | e) stability upon reduction, Cu(II) -> Cu (I): reversibility [7]: irreversible

— patent publication US10434199B2, “Picolinate cross-bridged cyclams, chelates with metallic cations and use thereof” (UNIVERSITÉ DE BRETAGNE OCCIDENTALE, priority 2013, dated 2019)
